Data reported in ChEMBL document CHEMBL1201862, “PubChem BioAssay data set” (2004).
Calls of active or inactive are those of the source.

Columns and labels:
[1] = cytotoxicity in MITF-independent A375 cells – cell-based, CellTiter-Glo luminescence, dry powder, set 9, counter-screen for MITF modulator project, dose response (AID 651591); assay type: functional; details: A-375
[2] = MITF Orthogonal Assay: SK-MEL-5 CTG Assay Measured in Cell-Based System Using Plate Reader - 2084-02_Inhibitor_Dose_DryPowder_Activity_Set5.; assay type: functional
[3] = target: T1, RNA-binding protein pos-1 (Caenorhabditis elegans, UniProt G5EF15); assay: disruptors of C. elegans POS-1 RNA interaction – biochemical, fluorescence polarization, dose response (AID 1964);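 further: purified POS-1 fused to maltose binding protein made in E. coli; potency of compounds blocking POS-1 binding to fluorescent RNA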
T1 sequence (G5EF15 whole entry): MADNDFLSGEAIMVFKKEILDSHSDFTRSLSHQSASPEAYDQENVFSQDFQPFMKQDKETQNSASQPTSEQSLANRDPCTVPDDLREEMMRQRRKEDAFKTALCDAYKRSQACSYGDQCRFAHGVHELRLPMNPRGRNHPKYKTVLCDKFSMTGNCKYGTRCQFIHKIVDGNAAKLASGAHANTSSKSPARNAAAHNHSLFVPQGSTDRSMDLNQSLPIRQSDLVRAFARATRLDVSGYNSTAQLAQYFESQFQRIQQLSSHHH

Streptokinase A = target: T2, Streptokinase A (Streptococcus pyogenes serotype M1, UniProt P10520); assay: viability-normalized secreted streptokinase activity reduction – plasminogen activation absorbance, OD405, dose response (AID 1914); assay type: functional, Streptococcus pyogenes M1 GAS;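 further: secreted streptokinase activity via plasminogen activation per viability signal from cell pellet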
T2 sequence (P10520 whole entry): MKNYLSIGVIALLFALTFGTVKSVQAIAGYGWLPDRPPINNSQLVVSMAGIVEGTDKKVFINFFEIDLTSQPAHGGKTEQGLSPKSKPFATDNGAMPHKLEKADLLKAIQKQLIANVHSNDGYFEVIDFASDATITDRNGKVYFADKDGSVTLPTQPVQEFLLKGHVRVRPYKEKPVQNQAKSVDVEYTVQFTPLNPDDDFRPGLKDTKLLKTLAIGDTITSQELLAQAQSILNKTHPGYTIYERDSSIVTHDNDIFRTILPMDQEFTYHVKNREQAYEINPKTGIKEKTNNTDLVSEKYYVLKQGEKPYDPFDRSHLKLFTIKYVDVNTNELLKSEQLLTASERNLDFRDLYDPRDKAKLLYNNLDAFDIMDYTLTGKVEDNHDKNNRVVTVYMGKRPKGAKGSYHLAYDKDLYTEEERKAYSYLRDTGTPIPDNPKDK

Streptococcus = assay: GAS UMAA2166 growth inhibition – luminescence, BacTiterGlo, counter-screen for streptokinase expression inhibitor project, dose response (AID 1915); assay type: functional, organism-based;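 further: potency for reduction of bacterial viability or growth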
[4] = target: Serine/threonine-protein kinase PAK 4 (Homo sapiens, UniProt O96013); assay type: functional;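 further: value obtained within a kinome profiling panel in which PAK4 was one of the panel members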
[5] = target: Homeodomain-interacting protein kinase 2 (Homo sapiens, UniProt Q9H2X6); assay type: functional;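 further: measured within a kinome-wide kinase profiling panel, HIPK2 being one panel member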
Homeodomain-interacting protein kinase 2, sequence (Q9H2X6 whole entry): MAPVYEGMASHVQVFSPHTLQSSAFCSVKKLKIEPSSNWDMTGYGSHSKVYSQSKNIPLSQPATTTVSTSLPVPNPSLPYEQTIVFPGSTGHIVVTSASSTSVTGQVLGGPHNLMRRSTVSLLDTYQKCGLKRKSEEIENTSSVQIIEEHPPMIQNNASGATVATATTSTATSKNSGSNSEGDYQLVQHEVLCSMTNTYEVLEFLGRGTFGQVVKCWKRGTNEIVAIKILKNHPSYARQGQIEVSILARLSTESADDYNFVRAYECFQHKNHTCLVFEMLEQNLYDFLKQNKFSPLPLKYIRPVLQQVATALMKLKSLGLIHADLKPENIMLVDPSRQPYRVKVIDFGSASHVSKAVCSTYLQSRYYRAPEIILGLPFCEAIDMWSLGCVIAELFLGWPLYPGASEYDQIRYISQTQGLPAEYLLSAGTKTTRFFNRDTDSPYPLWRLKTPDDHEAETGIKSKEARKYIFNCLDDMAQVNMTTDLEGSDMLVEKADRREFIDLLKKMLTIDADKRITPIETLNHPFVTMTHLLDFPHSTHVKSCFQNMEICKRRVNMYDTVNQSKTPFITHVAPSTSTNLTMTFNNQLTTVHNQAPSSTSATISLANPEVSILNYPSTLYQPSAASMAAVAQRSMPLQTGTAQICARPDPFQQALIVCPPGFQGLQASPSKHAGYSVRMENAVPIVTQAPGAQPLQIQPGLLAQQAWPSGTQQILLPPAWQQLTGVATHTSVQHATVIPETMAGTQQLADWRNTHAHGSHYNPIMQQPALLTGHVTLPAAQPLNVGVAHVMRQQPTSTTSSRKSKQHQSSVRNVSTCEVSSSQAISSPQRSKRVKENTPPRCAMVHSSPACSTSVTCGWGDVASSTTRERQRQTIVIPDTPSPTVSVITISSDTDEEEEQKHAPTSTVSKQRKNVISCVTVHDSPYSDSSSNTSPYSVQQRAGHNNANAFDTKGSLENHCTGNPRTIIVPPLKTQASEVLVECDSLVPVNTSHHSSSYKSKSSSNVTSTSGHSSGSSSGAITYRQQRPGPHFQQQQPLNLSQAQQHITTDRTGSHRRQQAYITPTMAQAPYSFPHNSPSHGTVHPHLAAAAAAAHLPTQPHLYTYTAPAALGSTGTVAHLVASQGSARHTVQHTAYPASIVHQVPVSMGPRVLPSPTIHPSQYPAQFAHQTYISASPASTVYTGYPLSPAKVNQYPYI

[6] = target: MAP kinase-activated protein kinase 2 (Homo sapiens, UniProt P49137); assay type: functional;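 further: measured as one member of a kinome-wide kinase panel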
MAP kinase-activated protein kinase 2, sequence (P49137 whole entry): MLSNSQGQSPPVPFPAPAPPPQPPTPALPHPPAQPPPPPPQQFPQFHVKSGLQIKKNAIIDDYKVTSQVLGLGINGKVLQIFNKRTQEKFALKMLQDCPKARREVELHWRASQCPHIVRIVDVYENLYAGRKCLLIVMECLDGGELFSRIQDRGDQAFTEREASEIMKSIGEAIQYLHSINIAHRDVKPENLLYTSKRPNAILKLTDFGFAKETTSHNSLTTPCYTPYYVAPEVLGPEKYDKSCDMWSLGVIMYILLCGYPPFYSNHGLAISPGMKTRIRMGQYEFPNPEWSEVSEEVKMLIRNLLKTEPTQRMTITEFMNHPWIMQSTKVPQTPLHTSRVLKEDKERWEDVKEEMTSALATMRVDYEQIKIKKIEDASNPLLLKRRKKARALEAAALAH

[7] = target: Serine/threonine-protein kinase D2 (Homo sapiens, UniProt Q9BZL6); assay type: functional;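 further: measured against PRKD2 as one member of a kinome-wide kinase profiling panel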
[8] = target: Serine/threonine-protein kinase DCLK1 (Homo sapiens, UniProt O15075); assay type: functional;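 further: affinity for DCLK1 (listed as DCAMKL1) measured as one member of a kinome-wide kinase profiling panel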
[9] = target: Proto-oncogene tyrosine-protein kinase Src (Homo sapiens, UniProt P12931); assay type: functional;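 further: SRC entry within a kinome-wide kinase profiling panel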
[10] = target: STE20-like serine/threonine-protein kinase (Homo sapiens, UniProt Q9H2G2); assay type: functional
STE20-like serine/threonine-protein kinase, sequence (Q9H2G2 whole entry): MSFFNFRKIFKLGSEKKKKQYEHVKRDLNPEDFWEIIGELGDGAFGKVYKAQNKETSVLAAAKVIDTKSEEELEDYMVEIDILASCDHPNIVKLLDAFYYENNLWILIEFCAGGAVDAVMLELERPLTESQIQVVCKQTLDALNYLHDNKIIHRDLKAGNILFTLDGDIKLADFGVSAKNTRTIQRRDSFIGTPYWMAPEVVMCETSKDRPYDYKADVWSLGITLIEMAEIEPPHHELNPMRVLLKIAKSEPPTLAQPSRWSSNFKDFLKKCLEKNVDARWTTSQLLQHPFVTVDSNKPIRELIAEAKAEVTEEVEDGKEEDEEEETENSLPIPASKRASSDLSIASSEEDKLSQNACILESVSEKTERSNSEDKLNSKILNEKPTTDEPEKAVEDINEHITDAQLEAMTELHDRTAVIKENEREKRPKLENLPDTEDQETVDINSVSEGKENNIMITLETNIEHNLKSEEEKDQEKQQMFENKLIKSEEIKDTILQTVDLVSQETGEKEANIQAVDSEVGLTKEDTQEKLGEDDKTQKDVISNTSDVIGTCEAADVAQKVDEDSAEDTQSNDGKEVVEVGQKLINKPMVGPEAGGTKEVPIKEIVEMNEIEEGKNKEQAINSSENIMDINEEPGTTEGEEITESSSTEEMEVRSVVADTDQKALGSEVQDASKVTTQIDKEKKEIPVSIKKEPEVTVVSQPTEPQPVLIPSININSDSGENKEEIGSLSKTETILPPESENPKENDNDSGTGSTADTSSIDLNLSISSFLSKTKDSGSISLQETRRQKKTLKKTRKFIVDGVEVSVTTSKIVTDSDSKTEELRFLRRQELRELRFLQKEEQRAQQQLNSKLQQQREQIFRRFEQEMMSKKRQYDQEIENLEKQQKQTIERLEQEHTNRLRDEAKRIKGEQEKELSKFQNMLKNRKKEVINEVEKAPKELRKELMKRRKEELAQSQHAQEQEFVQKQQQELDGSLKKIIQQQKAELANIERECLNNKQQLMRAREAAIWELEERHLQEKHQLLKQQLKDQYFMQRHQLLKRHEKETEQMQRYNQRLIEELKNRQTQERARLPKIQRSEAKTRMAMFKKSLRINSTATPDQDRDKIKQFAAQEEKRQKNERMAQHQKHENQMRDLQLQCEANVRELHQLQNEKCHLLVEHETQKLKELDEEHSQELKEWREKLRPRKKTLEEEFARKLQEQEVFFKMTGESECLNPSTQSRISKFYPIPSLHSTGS

[11] = target: Serine/threonine-protein kinase Chk2 (Homo sapiens, UniProt O96017); assay type: functional;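 further: CHEK2 entry within a kinome-wide screening panel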
Serine/threonine-protein kinase Chk2, sequence (O96017 whole entry): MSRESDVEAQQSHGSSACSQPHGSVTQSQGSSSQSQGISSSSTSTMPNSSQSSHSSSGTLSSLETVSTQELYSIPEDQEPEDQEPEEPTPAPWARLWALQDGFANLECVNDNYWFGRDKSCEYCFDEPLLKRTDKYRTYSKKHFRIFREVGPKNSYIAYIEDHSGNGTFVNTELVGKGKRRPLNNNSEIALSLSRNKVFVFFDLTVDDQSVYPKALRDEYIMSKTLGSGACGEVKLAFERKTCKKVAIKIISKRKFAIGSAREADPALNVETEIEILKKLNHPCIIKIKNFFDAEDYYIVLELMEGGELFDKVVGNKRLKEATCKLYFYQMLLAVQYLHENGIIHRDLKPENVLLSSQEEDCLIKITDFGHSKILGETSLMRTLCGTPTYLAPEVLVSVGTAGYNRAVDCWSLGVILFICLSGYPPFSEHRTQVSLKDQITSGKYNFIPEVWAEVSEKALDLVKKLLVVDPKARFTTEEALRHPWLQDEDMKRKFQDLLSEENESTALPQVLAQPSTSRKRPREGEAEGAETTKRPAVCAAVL

[12] = target: Dual specificity tyrosine-phosphorylation-regulated kinase 1A (Homo sapiens, UniProt Q13627); assay type: functional;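 further: measured against DYRK1A as one member of a broad kinome profiling panel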
[13] = target: Serine/threonine-protein kinase pim-1 (Homo sapiens, UniProt P11309); assay type: functional
Serine/threonine-protein kinase pim-1, sequence (P11309 whole entry): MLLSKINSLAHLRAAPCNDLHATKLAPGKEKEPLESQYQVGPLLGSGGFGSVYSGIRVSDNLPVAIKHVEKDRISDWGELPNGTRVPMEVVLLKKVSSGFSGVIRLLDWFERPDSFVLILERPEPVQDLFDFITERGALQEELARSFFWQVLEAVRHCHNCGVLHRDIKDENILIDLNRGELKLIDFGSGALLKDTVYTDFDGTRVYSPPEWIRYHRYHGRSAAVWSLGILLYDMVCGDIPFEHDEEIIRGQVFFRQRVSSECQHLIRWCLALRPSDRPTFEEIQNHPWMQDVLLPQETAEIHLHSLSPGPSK

[14] = target: Interleukin-1 receptor-associated kinase 4 (Homo sapiens, UniProt Q9NWZ3); assay type: functional
[15] = target: RAC-gamma serine/threonine-protein kinase (Homo sapiens, UniProt Q9Y243); assay type: functional
Ephrin type-A receptor 2 = Ephrin type-A receptor 2 (Homo sapiens, UniProt P29317); assay type: functional;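 further: EPHA2 tested as one member of a kinome-wide kinase panel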
[16] = target: Tyrosine-protein kinase SYK (Homo sapiens, UniProt P43405); assay type: functional
[17] = target: Dual specificity mitogen-activated protein kinase kinase 1 (Homo sapiens, UniProt Q02750); assay: Navigating the Kinome. Panel member name: MAP2K1; assay type: functional
[18] = target: Mitogen-activated protein kinase 8 (Homo sapiens, UniProt P45983); assay type: functional;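 further: value comes from one member of a kinome-wide kinase profiling panel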
[19] = target: Megakaryocyte-associated tyrosine-protein kinase (Homo sapiens, UniProt P42679); assay type: functional;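 further: affinity measured as one member of a kinase panel (Navigating the Kinome) against MATK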
[20] = target: Serine/threonine-protein kinase Nek2 (Homo sapiens, UniProt P51955); assay type: functional
[21] = target: Lymphokine-activated killer T-cell-originated protein kinase (Homo sapiens, UniProt Q96KB5); assay type: functional;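 further: value comes from a kinase panel screen in which TOPK was one of the panel members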
Lymphokine-activated killer T-cell-originated protein kinase, sequence (Q96KB5 whole entry): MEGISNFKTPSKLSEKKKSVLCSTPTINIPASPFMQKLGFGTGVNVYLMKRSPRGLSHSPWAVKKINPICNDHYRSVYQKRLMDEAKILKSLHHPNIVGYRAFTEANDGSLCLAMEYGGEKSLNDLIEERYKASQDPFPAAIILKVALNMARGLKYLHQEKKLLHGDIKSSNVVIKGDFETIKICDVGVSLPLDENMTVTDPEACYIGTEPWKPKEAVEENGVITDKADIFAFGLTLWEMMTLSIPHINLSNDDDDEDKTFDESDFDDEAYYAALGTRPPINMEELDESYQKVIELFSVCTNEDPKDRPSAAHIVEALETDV

[22] = target: Serine/threonine-protein kinase 3 (Homo sapiens, UniProt Q13188); assay type: functional;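 further: measured as one member of a kinome-wide kinase panel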
Serine/threonine-protein kinase 3, sequence (Q13188 whole entry): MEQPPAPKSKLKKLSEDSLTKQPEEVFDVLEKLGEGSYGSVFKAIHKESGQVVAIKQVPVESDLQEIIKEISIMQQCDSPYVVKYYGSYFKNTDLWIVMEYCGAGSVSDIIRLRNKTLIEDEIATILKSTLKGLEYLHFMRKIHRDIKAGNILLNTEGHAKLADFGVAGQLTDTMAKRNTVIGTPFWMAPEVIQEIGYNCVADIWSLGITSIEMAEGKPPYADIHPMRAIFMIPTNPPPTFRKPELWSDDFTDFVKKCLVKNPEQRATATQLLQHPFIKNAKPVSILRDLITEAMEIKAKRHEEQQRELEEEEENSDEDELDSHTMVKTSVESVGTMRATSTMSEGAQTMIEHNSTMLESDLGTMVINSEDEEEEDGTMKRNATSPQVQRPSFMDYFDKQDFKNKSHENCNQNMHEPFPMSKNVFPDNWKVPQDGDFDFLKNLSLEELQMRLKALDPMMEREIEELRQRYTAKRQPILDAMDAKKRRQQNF

[23] = target: Non-receptor tyrosine-protein kinase TYK2 (Homo sapiens, UniProt P29597); assay type: functional
[24] = target: Dual specificity protein phosphatase 3 (Homo sapiens, UniProt P51452); assay: VHR1 phosphatase inhibitors, biochemical (AID 1878)
Dual specificity protein phosphatase 3, sequence (P51452 whole entry): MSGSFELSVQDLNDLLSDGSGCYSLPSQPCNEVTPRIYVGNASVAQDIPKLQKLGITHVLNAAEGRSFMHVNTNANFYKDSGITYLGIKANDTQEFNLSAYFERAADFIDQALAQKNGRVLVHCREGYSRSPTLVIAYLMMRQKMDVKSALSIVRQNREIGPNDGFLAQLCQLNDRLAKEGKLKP

Procathepsin L = Procathepsin L (Homo sapiens, UniProt P07711)
Procathepsin L, sequence (P07711 whole entry): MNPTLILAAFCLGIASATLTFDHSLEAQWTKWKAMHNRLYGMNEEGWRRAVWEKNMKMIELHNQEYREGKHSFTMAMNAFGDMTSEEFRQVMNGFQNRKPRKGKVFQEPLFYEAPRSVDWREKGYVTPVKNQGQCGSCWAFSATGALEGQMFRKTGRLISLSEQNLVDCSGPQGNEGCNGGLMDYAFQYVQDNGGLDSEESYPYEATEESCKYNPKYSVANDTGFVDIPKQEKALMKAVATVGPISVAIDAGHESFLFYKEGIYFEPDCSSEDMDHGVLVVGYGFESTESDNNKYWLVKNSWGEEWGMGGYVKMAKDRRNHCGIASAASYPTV

[25] = target: T3, Dual specificity protein phosphatase 6 (Rattus norvegicus, UniProt Q64346); assay: inhibition of rat DUSP6 enzyme activity – biochemical, in vitro, primary screen (AID 425)
T3 sequence (Q64346 whole entry): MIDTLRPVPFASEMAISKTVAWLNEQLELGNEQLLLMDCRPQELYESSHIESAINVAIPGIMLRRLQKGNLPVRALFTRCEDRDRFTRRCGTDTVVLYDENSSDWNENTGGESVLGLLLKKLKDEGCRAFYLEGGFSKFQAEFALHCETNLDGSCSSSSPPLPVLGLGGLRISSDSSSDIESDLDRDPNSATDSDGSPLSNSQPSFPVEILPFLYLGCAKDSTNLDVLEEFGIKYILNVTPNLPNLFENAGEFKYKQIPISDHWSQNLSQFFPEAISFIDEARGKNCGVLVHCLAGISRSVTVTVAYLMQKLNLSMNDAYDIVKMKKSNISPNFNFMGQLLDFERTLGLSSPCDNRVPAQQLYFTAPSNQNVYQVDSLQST

C=CCNC1=C(Cl)C(=O)c2ccccc2C1=O
active: AC50 [2] 1700 nM
inactive: AC50 [1] > 70000 nM

CCOC(=O)C(C(=O)OCC)c1cc(Br)c2noc3c2c1C(=O)c1ccccc1-3
> 150000 nM (not active): EC50 (Streptococcus)
active: EC50 [3] 9230 nM | EC50 (Streptokinase A) 11900 nM

COc1ccc(C(=O)Nc2n[nH]c3ccc(-c4cn(Cc5ccccc5)nn4)cc23)cc1OC
inactive: Ki [13] > 5010 nM | Ki (Ephrin type-A receptor 2) > 3160 nM | Ki [19] > 2000 nM | Ki [21] > 10000 nM
active: Ki [4] 501 nM | Ki [5] 25.1 nM | Ki [6] 2000 nM | Ki [7] 2000 nM | Ki [8] 5010 nM | Ki [9] 316 nM | Ki [10] 2000 nM | Ki [11] 50.1 nM | Ki [12] 100 nM | Ki [14] 2510 nM | Ki [15] 1260 nM | Ki [16] 20 nM | Ki [17] 1260 nM | Ki [18] 631 nM | Ki [20] 6310 nM | Ki [22] 794 nM | Ki [23] 20 nM

CS(=O)(=O)c1ccc2c(c1)SC1=NC(=O)/C(=C/c3ccc(O)c(O)c3)C(=N)N12
> 59600 nM (not active): IC50 (Procathepsin L)
active: IC50 [24] 4570 nM
113000 nM (not active): IC50 [25]
